Data taken from ChEMBL document CHEMBL5537150, “Synthesis of melampomagnolide B derivatives as potential anti-Triple Negative Breast Cancer agents” (Eur J Med Chem, 2024).
Each block holds one compound with its values, some of them ahead of it. Calls of active or inactive are those of the source. The rule behind the calls is not given here.

Experiments:
[1] = system: MDA-MB-231; assay: Antiproliferative activity against human MDA-MB-231 cells assessed as inhibition of cell growth incubated for 72 hrs by MTT assay; type: functional, cell-based; settings: MDA-MB-231, 72 h
[2] = system: MDA-MB-231; assay: Inhibition of NF-kappaB signalling pathway in human MDA-MB-231 cells assessed as inhibition of p65 nuclear translocation at 0.2 to 2 uM incubated for 48 hrs by Western blotting analysis; type: cell-based; settings: dose 0.2-2 µM
[3] = system: SUM-159-PT; assay: Antiproliferative activity against human SUM159 cells assessed as inhibition of cell growth incubated for 72 hrs by MTT assay; type: functional, cell-based
[4] = system: MDA-MB-231; assay: Antimigratory activity in human MDA-MB-231 cells assessed as downregulation of Vimentin protein expression incubated for 48 hrs by Western blotting analysis; type: functional, cell-based
[5] = system: MDA-MB-468; assay: Induction of apoptosis in human MDA-MB-468 cells at 1 uM incubated for 48 hrs by annexin-V-APC/PI staining based flow cytometric analysis (reference value: 5.65 +/- 2.76 %); type: functional
[6] = system: MDA-MB-231; assay: Induction of apoptosis in human MDA-MB-231 cells assessed as upregulation of Bax protein expression incubated for 48 hrs by Western blotting analysis; type: functional, cell-based
[7] = system: MDA-MB-231; assay: Inhibition of NF-kappaB signalling pathway in human MDA-MB-231 cells assessed as downregulation of p65 phosphorylation at 0.5 to 2 uM incubated for 48 hrs by Western blotting analysis; type: cell-based; settings: dose 0.5-2 µM
[8] = system: MDA-MB-231; assay: Inhibition of NF-kappaB signalling pathway in human MDA-MB-231 cells assessed as downregulation of IkappaBalpha phosphorylation at 0.5 to 2 uM incubated for 48 hrs by Western blotting analysis; type: cell-based; settings: dose 0.5-2 µM
[9] = system: MDA-MB-231; assay: Antimigratory activity in human MDA-MB-231 cells assessed as downregulation of N-cadherin protein expression incubated for 48 hrs by Western blotting analysis; type: functional, cell-based
[10] = system: MDA-MB-468; assay: Induction of apoptosis in human MDA-MB-468 cells at 0.2 uM incubated for 48 hrs by annexin-V-APC/PI staining based flow cytometric analysis (reference value: 5.65 +/- 2.76 %); type: functional
[11] = system: MDA-MB-231; assay: Inhibition of NF-kappaB signalling pathway in human MDA-MB-231 cells assessed as effect on total p65 protein level at 0.2 to 2 uM incubated for 48 hrs by Western blotting analysis; type: cell-based; settings: dose 0.2-2 µM
[12] = system: MDA-MB-231; assay: Induction of apoptosis in human MDA-MB-231 cells assessed as downregulation of BCL-2 protein expression incubated for 48 hrs by Western blotting analysis; type: functional, cell-based
[13] = system: MDA-MB-231; assay: Induction of apoptosis in human MDA-MB-231 cells at 0.2 uM incubated for 48 hrs by annexin-V-APC/PI staining based flow cytometric analysis (reference value: 5.9 +/- 0.26 %); type: functional
[14] = system: MDA-MB-468; assay: Induction of apoptosis in human MDA-MB-468 cells at 0.5 uM incubated for 48 hrs by annexin-V-APC/PI staining based flow cytometric analysis (reference value: 5.65 +/- 2.76 %); type: functional
[15] = system: MDA-MB-231; assay: Inhibition of NF-kappaB signalling pathway in human MDA-MB-231 cells assessed as upregulation of cytoplasmic p65 expression at 0.2 to 2 uM incubated for 48 hrs by Western blotting analysis; type: cell-based; settings: dose 0.2-2 µM
[16] = system: MDA-MB-468; assay: Antimigratory activity in human MDA-MB-468 cells assessed as downregulation of N-cadherin protein expression incubated for 48 hrs by Western blotting analysis; type: functional, cell-based
[17] = system: MDA-MB-231; assay: Induction of apoptosis in human MDA-MB-231 cells at 2 uM incubated for 48 hrs by annexin-V-APC/PI staining based flow cytometric analysis (reference value: 5.9 +/- 0.26 %); type: functional
[18] = system: NIH3T3; assay: Cytotoxicity against mouse 3T3 cells at 1 uM incubated for 72 hrs by MTT assay; type: toxicity, cell-based; settings: nih3t3, 72 h
[19] = system: MDA-MB-468; assay: Antiproliferative activity against human MDA-MB-468 cells assessed as inhibition of cell growth incubated for 72 hrs by MTT assay; type: functional, cell-based; settings: MDA-MB-468, 72 h
[20] = system: MDA-MB-231; assay: Inhibition of NF-kappaB signalling pathway in human MDA-MB-231 cells assessed as downregulation of nuclear p65 expression at 0.2 to 2 uM incubated for 48 hrs by Western blotting analysis; type: cell-based; settings: dose 0.2-2 µM
[21] = system: MDA-MB-468; assay: Antimigratory activity in human MDA-MB-468 cells assessed as downregulation of Vimentin protein expression incubated for 48 hrs by Western blotting analysis; type: functional, cell-based
[22] = system: MDA-MB-468; assay: Antimigratory activity in human MDA-MB-468 cells assessed as reduction in number of migrated cells incubated for 48 hrs by crystal violet staining based transwell assay; type: functional, cell-based
[23] = system: MCF7; assay: Antiproliferative activity against human MCF7 cells assessed as inhibition of cell growth incubated for 72 hrs by MTT assay; type: functional, cell-based; settings: MCF7, 72 h
[24] = system: MDA-MB-231; assay: Antimigratory activity in human MDA-MB-231 cells assessed as reduction in number of migrated cells incubated for 48 hrs by crystal violet staining based transwell assay; type: functional, cell-based
[25] = system: MDA-MB-231; assay: Induction of apoptosis in human MDA-MB-231 cells at 0.5 uM incubated for 48 hrs by annexin-V-APC/PI staining based flow cytometric analysis (reference value: 5.9 +/- 0.26 %); type: functional
[26] = system: MDA-MB-231; assay: Induction of apoptosis in human MDA-MB-231 cells at 1 uM incubated for 48 hrs by annexin-V-APC/PI staining based flow cytometric analysis (reference value: 5.9 +/- 0.26 %); type: functional
[27] = system: MDA-MB-468; assay: Induction of apoptosis in human MDA-MB-468 cells at 2 uM incubated for 48 hrs by annexin-V-APC/PI staining based flow cytometric analysis (reference value: 5.65 +/- 2.76 %); type: functional
[28] = system: MDA-MB-231; assay: Induction of apoptosis in human MDA-MB-231 cells at 5 uM incubated for 48 hrs by annexin-V-APC/PI staining based flow cytometric analysis (reference value: 5.9 +/- 0.26 %); type: functional
[29] = system: MDA-MB-231; assay: Induction of apoptosis in human MDA-MB-231 cells assessed as downregulation of MCL-1 protein expression incubated for 48 hrs by Western blotting analysis; type: functional, cell-based
[30] = system: MDA-MB-231; assay: Induction of apoptosis in human MDA-MB-231 cells assessed as downregulation of BCL-xl protein expression incubated for 48 hrs by Western blotting analysis; type: functional, cell-based
[31] = system: 4T1; assay: Antiproliferative activity against mouse 4T1 cells assessed as inhibition of cell growth incubated for 72 hrs by MTT assay; type: functional, cell-based; settings: 4T1, 72 h
[32] = system: MDA-MB-468; assay: Induction of apoptosis in human MDA-MB-468 cells at 5 uM incubated for 48 hrs by annexin-V-APC/PI staining based flow cytometric analysis (reference value: 5.65 +/- 2.76 %); type: functional

IC50 [1]: 1.39 µM
SMILES: C=C1C(=O)O[C@H]2[C@H]1CC/C(C(=O)Oc1ccc(-c3cc(=S)ss3)cc1)=C\CC[C@@]1(C)O[C@@H]21

IC50 [1]: 35.8 µM
SMILES: C=C1C(=O)O[C@H]2[C@H]1C(COC(=O)CC1(CC(=O)O)CCCC1)C/C=C\CC[C@@]1(C)O[C@@H]21 (stereo partly drawn)

IC50 [1]: 7.58 µM
SMILES: C=C1C(=O)O[C@H]2[C@H]1C(COC(=O)c1cc3ccccc3cc1C(=O)Oc1ccc(-c3cc(=S)ss3)cc1)C/C=C\CC[C@@]1(C)O[C@@H]21 (stereo partly drawn)

IC50 [1]: 2.09 µM
SMILES: C=C1C(=O)O[C@H]2[C@H]1CC/C(C(=O)OCCCOc1ccc(-c3cc(=S)ss3)cc1)=C\CC[C@@]1(C)O[C@@H]21

IC50 [1]: 6.11 µM
SMILES: C=C1C(=O)O[C@H]2[C@H]1C(COC(=O)/C=C/c1ccc(OCc3ccc(-c4cc(=S)ss4)cc3)cc1)C/C=C\CC[C@@]1(C)O[C@@]21C (stereo partly drawn)

IC50 [1]: 2.47 µM
SMILES: C=C1C(=O)O[C@H]2[C@H]1CC/C(C(=O)OCCCCOc1ccc(-c3cc(=S)ss3)cc1)=C\CC[C@@]1(C)O[C@@H]21

IC50 [1]: 1.68 µM
SMILES: C=C1C(=O)O[C@H]2[C@H]1C(COC(=O)CC(C)(C)CC(=O)Oc1ccc(-c3cc(=S)ss3)cc1)C/C=C\CC[C@@]1(C)O[C@@H]21 (stereo partly drawn)

IC50 [1]: 8.52 µM
SMILES: C=C1C(=O)O[C@H]2[C@H]1C(COC(=O)CCCC(=O)Oc1ccc(-c3cc(=S)ss3)cc1)C/C=C\CC[C@@]1(C)O[C@@H]21 (stereo partly drawn)

IC50 [1]: > 50 µM
SMILES: C=C1C(=O)O[C@H]2[C@H]1CC/C(C(=O)O)=C\CC[C@@]1(C)O[C@@H]21

IC50 [1]: > 50 µM
SMILES: C=C1C(=O)O[C@H]2[C@H]1C(COC(=O)CCC(=O)O)C/C=C\CC[C@@]1(C)O[C@@]21C (stereo partly drawn)

IC50 [1]: 36.4 µM
SMILES: C=C1C(=O)O[C@H]2[C@H]1C(COC(=O)CC(C)(C)CC(=O)O)C/C=C\CC[C@@]1(C)O[C@@H]21 (stereo partly drawn)

IC50 [19]: 0.37 µM
IC50 [23]: 1.81 µM
IC50 [31]: 2.85 µM
IC50 [1]: 1.07 µM
SMILES: C=C1C(=O)O[C@H]2[C@H]1C(COC(=O)/C=C/c1ccccc1OCCc1ccc(-c3cc(=S)ss3)cc1)C/C=C\CC[C@@]1(C)O[C@@]21C (stereo partly drawn)
inhibition [2]: Active
IC50 [3]: 1.06 µM
Activity [4]: Dose-Dependent Effect
Activity [5]: 4.87%
Activity [6]: Dose-Dependent Effect
inhibition [7]: Active
inhibition [8]: Active
Activity [9]: Dose-Dependent Effect
Activity [10]: 5.8%
inhibition [11]: inactive
Activity [12]: Dose-Dependent Effect
Activity [13]: 6.85%
Activity [14]: 4.3%
inhibition [15]: Active
Activity [16]: Dose-Dependent Effect
Activity [17]: 20.32%
Activity [18]: Toxic
inhibition [20]: Active
Activity [21]: Dose-Dependent Effect
Activity [22]: Dose-Dependent Effect
Activity [24]: Dose-Dependent Effect
Activity [25]: 7.9%
Activity [26]: 15.46%
Activity [27]: 11.32%
Activity [28]: 49.35%
Activity [29]: Dose-Dependent Effect
Activity [30]: Dose-Dependent Effect
Activity [32]: 52.61%

IC50 [19]: 20 µM
IC50 [23]: 6.76 µM
IC50 [31]: 5.88 µM
IC50 [1]: 3.84 µM
SMILES: C=C1C(=O)O[C@H]2[C@H]1CC/C(CO)=C\CC[C@@]1(C)O[C@@H]21
IC50 [3]: 7.45 µM
